Results as given in BindingDB's records for doi:10.1016/j.bmcl.2004.10.084 (University of Illinois At Chicago, 2005).

Target: Beta-secretase 1 (Homo sapiens, UniProt P56817)
Assay: Enzyme Inhibition Measurements
Conditions: pH 4.5; 37 °C
Protocol: Enzyme activities were assayed by monitoring the hydrolysis of substrate in the presence or absence of inhibitor compounds. The hydrolysis was recorded as the increase in fluorescence intensity over a 10 min time period. […] The Ki was calculated by using Ki = IC50/ (1 + [S]/Km), and a Km value determined according to Michaelis-Menten.

Beta-secretase 1, sequence (P56817 whole entry): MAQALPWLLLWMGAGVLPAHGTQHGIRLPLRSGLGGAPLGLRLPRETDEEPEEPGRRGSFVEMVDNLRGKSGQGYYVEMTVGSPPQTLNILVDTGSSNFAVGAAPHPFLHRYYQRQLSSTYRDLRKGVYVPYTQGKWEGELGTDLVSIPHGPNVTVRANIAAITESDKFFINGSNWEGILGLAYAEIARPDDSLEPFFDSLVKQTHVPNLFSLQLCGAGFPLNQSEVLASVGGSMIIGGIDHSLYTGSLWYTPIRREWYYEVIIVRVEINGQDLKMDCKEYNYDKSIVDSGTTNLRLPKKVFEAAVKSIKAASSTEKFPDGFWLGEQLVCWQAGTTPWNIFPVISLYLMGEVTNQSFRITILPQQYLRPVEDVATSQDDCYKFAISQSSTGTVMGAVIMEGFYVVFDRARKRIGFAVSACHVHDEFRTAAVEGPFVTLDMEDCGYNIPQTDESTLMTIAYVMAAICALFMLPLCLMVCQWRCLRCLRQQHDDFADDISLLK

Ki: 26.6 nM
Structure (SMILES): C=CCNC(=O)C[C@H](NC(=O)[C@@H](NC(=O)OCC=C)C(C)C)C(=O)N[C@@H](CC(C)C)[C@@H](O)C[C@@H](C)C(=O)N[C@H](C(=O)NCc1ccccc1)C(C)C [prop-2-en-1-yl N-[(1S)-1-{[(1S)-1-{[(1R,3S,4S)-1-{[(1S)-1-(benzylcarbamoyl)-2-methylpropyl]carbamoyl}-3-hydroxy-1,6-dimethylheptan-4-yl]carbamoyl}-2-(prop-2-en-1-ylcarbamoyl)ethyl]carbamoyl}-2-methylpropyl]carbamate]
